The text below walks through data of patent publication US20250129068A1 (IP2IPO INNOVATIONS LIMITED, priority 2021, published 2025).

Chain of full-length human GCN2 enzyme (Q9P2K8 whole entry): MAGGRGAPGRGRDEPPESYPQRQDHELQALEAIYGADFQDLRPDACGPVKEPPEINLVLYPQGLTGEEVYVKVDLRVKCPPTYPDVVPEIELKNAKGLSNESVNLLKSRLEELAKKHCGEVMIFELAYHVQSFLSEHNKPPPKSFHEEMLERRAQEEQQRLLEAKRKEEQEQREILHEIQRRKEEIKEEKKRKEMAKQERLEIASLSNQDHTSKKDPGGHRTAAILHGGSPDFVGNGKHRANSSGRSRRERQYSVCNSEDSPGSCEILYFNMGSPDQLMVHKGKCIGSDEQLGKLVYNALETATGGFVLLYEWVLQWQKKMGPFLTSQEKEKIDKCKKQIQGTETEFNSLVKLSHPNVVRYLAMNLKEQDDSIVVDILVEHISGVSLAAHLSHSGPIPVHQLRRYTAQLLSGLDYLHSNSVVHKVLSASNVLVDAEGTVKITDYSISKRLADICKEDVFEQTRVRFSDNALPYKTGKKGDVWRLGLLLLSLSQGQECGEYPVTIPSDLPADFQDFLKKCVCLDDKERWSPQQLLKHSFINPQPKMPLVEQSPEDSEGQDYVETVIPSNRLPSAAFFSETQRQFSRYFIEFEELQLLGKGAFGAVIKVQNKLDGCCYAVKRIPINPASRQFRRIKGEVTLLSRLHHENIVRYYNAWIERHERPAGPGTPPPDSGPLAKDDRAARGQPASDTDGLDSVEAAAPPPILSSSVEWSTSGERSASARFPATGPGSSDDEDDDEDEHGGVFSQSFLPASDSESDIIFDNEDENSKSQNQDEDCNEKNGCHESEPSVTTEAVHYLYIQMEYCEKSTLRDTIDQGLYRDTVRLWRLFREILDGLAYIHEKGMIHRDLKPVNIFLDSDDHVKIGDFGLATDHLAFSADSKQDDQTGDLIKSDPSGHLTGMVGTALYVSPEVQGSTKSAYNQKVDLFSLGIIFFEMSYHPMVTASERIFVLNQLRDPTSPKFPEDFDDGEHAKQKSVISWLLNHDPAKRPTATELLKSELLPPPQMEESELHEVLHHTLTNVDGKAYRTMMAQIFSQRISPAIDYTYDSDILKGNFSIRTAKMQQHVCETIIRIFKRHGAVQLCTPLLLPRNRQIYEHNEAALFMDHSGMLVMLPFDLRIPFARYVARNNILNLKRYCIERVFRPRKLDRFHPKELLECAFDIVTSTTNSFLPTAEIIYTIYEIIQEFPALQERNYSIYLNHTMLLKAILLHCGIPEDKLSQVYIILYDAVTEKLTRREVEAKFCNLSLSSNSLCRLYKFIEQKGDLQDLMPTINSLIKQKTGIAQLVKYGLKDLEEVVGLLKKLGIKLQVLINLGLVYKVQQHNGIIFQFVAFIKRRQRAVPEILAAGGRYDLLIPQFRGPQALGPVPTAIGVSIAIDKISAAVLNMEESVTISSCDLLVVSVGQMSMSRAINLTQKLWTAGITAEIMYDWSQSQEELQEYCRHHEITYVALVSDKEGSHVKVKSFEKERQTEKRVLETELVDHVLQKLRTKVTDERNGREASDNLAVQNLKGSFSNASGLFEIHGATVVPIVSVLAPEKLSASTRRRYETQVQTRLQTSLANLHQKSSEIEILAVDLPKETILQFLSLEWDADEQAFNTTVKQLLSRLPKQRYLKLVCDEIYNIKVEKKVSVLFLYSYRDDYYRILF

The assay addresses full-length human GCN2 enzyme (Homo sapiens (Human), UniProt Q9P2K8). Nature of the assay: GCN2 enzyme inhibition, LanthaScreen TR-FRET Kinase Activity assay. The assay is classed as biochemical. Conditions: 10 μM ATP; mean of 1 to 3 replicate assays. The method, then: The inhibitory activity of the Example compounds towards GCN2 enzyme was measured according to the description below, using a LanthaScreen TR-FRET (Time Resolved Fluorescence Resonance Energy Transfer) Kinase Activity assay distributed by ThermoFisher Scientific.
The full-length human GCN2 enzyme (UniProt accession number Q9P2K8) was used for all experiments (Carna Bioscience). The TR-FRET pair was composed of GFP-elF2a and LanthaScreen Terbium-labeled anti-pelF2a (pSer52) Antibody.
Each example compound was dissolved in DMSO (0.15 mM) and dispensed in a 384-well plate by a D300 dispenser (Tecan) to a final concentration range 3000-0.13 nM using the logarithmic dilution mode in 2 replicates. Full inhibition (3000 nM commercial reference inhibitor) and DMSO vehicle control wells were also included on the same plate. All volumes were normalized to the final DMSO concentration of 2% of the reaction volume. Next, 5 μL of H2O was added to each well of the plate.
The enzyme mixture was prepared to obtain the following concentrations: • GCN2—30 nM • unloaded tRNA—0.3 nM • HEPES (pH=7.0)—100 mM • MgCl2—20 mM; MnCl2—10 mM
The mixture was applied by adding 5 μL to each well of the plate. The enzyme and the tested compound were then incubated at room temperature for 20 min while shaking at 450 rpm.
The substrate mixture was prepared to obtain the following concentrations: • GFP-elF2α—240 nM • ATP-30 PM • HEPES (pH=7.0)—50 mM • MgCl2—10 mM • MnCl2—5 mM.
The mixture was applied by adding 5 μL to each well of the plate. Thus, the final concentrations of the 15 μL reaction mixture were as follows: • GCN2—10 nM • unloaded tRNA—0.1 nM • GFP-elF2α—80 nM • ATP-10 μM • HEPES (1 M, pH=7.0)—50 mM • MgCl2—10 mM • MnCl2—5 mM.
The reaction was allowed to proceed at room temperature for 30 min while shaking at 450 rpm.
The antibody mixture was prepared to obtain the following concentrations: • Na2EDTA·2H2O—40 mM, in TR-FRET Dilution Buffer (Life technologies) • Tb-anti-pelF2a antibodies—4 nM.
The mixture was applied by adding 15 μL to each well. The plate was then incubated at room temperature for 60 min while shaking at 450 rpm and then read using Tecan Spark reader using specific TR-FRET filters.
The analysis of the GFP/Tb fluorescence results was conducted with GraphPad Prism to determine IC50 for each of the example compounds using 4-parameter model: log (inhibitor) vs. response-variable slope. IC50 and Ki values were calculated in the usual way. The assay was carried out between 1 and 3 times. The results in the table below are the mean results from replicate assays for the compound in question, where applicable.
In general terms: Time-resolved FRET reads energy transfer from a long-lived donor to a nearby acceptor.
The term Ki denotes the dissociation constant of the complex between target and ligand, obtained from inhibition or displacement. The compound `COc1ncccc1S(=O)(=O)Nc1nccc(C#Cc2cnc3[nH]ncc3c2)c1F` [Example 8, N-[3-Fluoro-4-(2-{1H-pyrazolo[3,4-b]pyridin-5-yl}ethynyl)pyridin-2-yl]-2-methoxypyridine-3-sulfonamide] registered a Ki of 59.9 nM. The compound `N#Cc1cccc(S(=O)(=O)Nc2nccc(C#Cc3cnc4[nH]ncc4c3)c2F)c1` [Example 2, 3-Cyano-N-[3-fluoro-4-(2-{1H-pyrazolo[3,4-b]pyridin-5-yl}ethynyl)pyridin-2-yl]benzene-1-sulfonamide] gave an inhibition constant (Ki) of 107 nM. Regarding `CCOc1ncc(Cl)cc1S(=O)(=O)Nc1nccc(C#Cc2cnc3[nH]ncc3c2)c1F` [Example 18, 5-Chloro-2-ethoxy-N-[3-fluoro-4-(2-{1H-pyrazolo[3,4-b]pyridin-5-yl}ethynyl)-pyridin-2-yl]pyridine-3-sulfonamide], the inhibition constant (Ki) worked out at 8.83 nM. Turning to `Cc1cnc(C)c(S(=O)(=O)Nc2nccc(C#Cc3cnc4[nH]ncc4c3)c2F)c1` [Example 11, N-[3-Fluoro-4-(2-{1H-pyrazolo[3,4-b]pyridin-5-yl}ethynyl)pyridin-2-yl]-2,5-dimethylpyridine-3-sulfonamide], the inhibition constant (Ki) was 8.17 nM. In turn, `COc1ncc(C(F)(F)F)cc1S(=O)(=O)Nc1nccc(C#Cc2cnc3[nH]ncc3c2)c1F` [Example 5, N-[3-Fluoro-4-(2-{1H-pyrazolo[3,4-b]pyridin-5-yl}ethynyl)pyridin-2-yl]-2-methoxy-5-(trifluoromethyl)pyridine-3-sulfonamide] came in with an inhibition constant (Ki) of 5.78 nM.

With `O=S(=O)(Nc1nccc(C#Cc2cnc3[nH]ncc3c2)c1F)c1ccc(Cl)cc1CO` [Example 19], the Ki is 65 nM. Compared with the last compound, the Ki is about 11-fold higher.

The compound `Cc1ccc(S(=O)(=O)Nc2nccc(C#Cc3cnc4[nH]ncc4c3)c2F)c(C)n1` [Example 14, N-[3-Fluoro-4-(2-{1H-pyrazolo[3,4-b]pyridin-5-yl}ethynyl)pyridin-2-yl]-2,6-dimethylpyridine-3-sulfonamide] returned an inhibition constant (Ki) of 17.8 nM.

`Cc1ncc(F)cc1S(=O)(=O)Nc1nccc(C#Cc2cnc3[nH]ncc3c2)c1F` [Example 16, 5-Fluoro-N-[3-fluoro-4-(2-{1H-pyrazolo[3,4-b]pyridin-5-yl}ethynyl)pyridin-2-yl]-2-methylpyridine-3-sulfonamide] showed an inhibition constant (Ki) of 4.19 nM. The compound `O=S(=O)(Nc1nccc(C#Cc2cnc3[nH]ncc3c2)c1F)c1cccc2c1OCO2` [Example 10, N-[3-Fluoro-4-(2-{1H-pyrazolo[3,4-b]pyridin-5-yl}ethynyl)pyridin-2-yl]-2H-1,3-benzodioxole-4-sulfonamide] displayed an inhibitory constant (Ki) of 209 nM. In turn, `COc1ncc(C)cc1S(=O)(=O)Nc1nccc(C#Cc2cnc3[nH]ncc3c2)c1F` [Example 9, N-[3-Fluoro-4-(2-{1H-pyrazolo[3,4-b]pyridin-5-yl}ethynyl)pyridin-2-yl]-2-methoxy-5-methyl-pyridine-3-sulfonamide] came in with an inhibition constant Ki of 6.6 nM. `COc1cccc(S(=O)(=O)Nc2nccc(C#Cc3cnc4[nH]ncc4c3)c2F)c1F` [Example 1, 2-Fluoro-N-[3-fluoro-4-(2-{1H-pyrazolo[3,4-b]pyridin-5-yl}ethynyl)pyridin-2-yl]-3-methoxybenzene-1-sulfonamide] had an inhibitory constant (Ki) of 172 nM. As for `COc1cccc(S(=O)(=O)Nc2nccc(C#Cc3cnc4[nH]ncc4c3)c2F)c1` [Example 3], the Ki amounted to 128 nM. As for `O=S(=O)(Nc1nccc(C#Cc2cnc3[nH]ncc3c2)c1F)c1cncc(Cl)c1` [Example 7, 5-Chloro-N-[3-fluoro-4-(2-{1H-pyrazolo[3,4-b]pyridin-5-yl}ethynyl)pyridin-2-yl]pyridine-3-sulfonamide], the inhibitory constant (Ki) was determined as 127 nM. The Ki values of the last two compounds are within 1.5-fold of each other.

`COc1ncc(C#N)cc1S(=O)(=O)Nc1nccc(C#Cc2cnc3[nH]ncc3c2)c1F` [Example 12, 5-Cyano-N-[3-fluoro-4-(2-{1H-pyrazolo[3,4-b]pyridin-5-yl}ethynyl)pyridin-2-yl]-2-methoxypyridine-3-sulfonamide] yielded a Ki of 7.76 nM. In turn, `Cc1nc(C)c(S(=O)(=O)Nc2nccc(C#Cc3cnc4[nH]ncc4c3)c2F)s1` [Example 6, N-[3-Fluoro-4-(2-{1H-pyrazolo[3,4-b]pyridin-5-yl}ethynyl)pyridin-2-yl]-2,4-dimethyl-1,3-thiazole-5-sulfonamide] came in with a Ki of 29.3 nM. As to `O=S(=O)(Nc1nccc(C#Cc2cnc3[nH]ncc3c2)c1F)c1cc(Cl)cnc1CCO` [Example 20, 5-chloro-N-[3-fluoro-4-(2-{1H-pyrazolo[3,4-b]pyridin-5-yl}ethynyl)pyridin-2-yl]-2-(2-hydroxyethyl)pyridine-3-sulfonamide], the inhibition constant Ki is 67 nM. `Cc1ncc(Cl)cc1S(=O)(=O)Nc1nccc(C#Cc2cnc3[nH]ncc3c2)c1F` [Example 4, 5-Chloro-N-[3-fluoro-4-(2-{1H-pyrazolo[3,4-b]pyridin-5-yl}ethynyl)pyridin-2-yl]-2-methylpyridine-3-sulfonamide] gave a Ki of 2.49 nM.
